We go through 36 molecules from patent US20050009706A1, “Alpha-cyanoacrylates” (priority 2001, published 2005).

The test system of one series is Amaranthus retroflexus. Description: greenhouse experiment, pre-emergence treatment. It is filed as in vivo. To be noted: 1.0 kg/ha. An excerpt:
(§1) The seeds of the test plants were sown separately for each species. For the pre-emergence treatment, directly after sowing the active compounds, which had been suspended or emulsified in water, were applied by means of finely distributing nozzles. The containers were irrigated gently to promote germination and growth and subsequently covered with transparent plastic hoods until the plant had rooted. This cover caused uniform germination of the test plants, unless this was adversely affected by reactive compounds. The application rate for a pre-emergence treatment was 0.5 or 1.0 kg of a.s. (active substance)/ha. Depending on the species, the plants were kept at 10-25° C. or 20-35° C. The test period extended over 2 to 4 weeks. During this time, the plants were tended, and their response to the individual treatments was evaluated. Evaluation was carried out using a scale from 0 to 100. 100 means no emergence of the plants, or complete destruction of at least the above-ground parts, and 0 means no damage, or normal course of growth. The plants used in the greenhouse experiments were of the following species: [table]

Series [1] deals with Setaria faberii. Description: greenhouse experiment, pre-emergence treatment. It counts as in vivo.
Description: as §1

For a further series, the system named is Pharbitis purpurea. Description: greenhouse experiment, post-emergence treatment. It counts as in vivo. An excerpt:
(§2) The seeds of the test plants were sown separately for each species. For the post-emergence treatment, the test plants were first grown to a height of from 3 to 15 cm, depending on the plant habit, and only then treated with the active compounds which had been suspended or emulsified in water. The test plants were for this purpose either sown directly and grown in the same containers, or they were first grown separately as seedlings and transplanted into the test containers a few days prior to treatment. The application rate for the post-emergence treatment was 0.5 or 1.0 kg of a.s. (active substance)/ha. Depending on the species, the plants were kept at 10-25° C. or 20-35° C. The test period extended over 2 to 4 weeks. During this time, the plants were tended, and their response to the individual treatments was evaluated. Evaluation was carried out using a scale from 0 to 100. 100 means no emergence of the plants, or complete destruction of at least the above-ground parts, and 0 means no damage, or normal course of growth. The plants used in the greenhouse experiments were of the following species: [table]

Series [2] relates to Setaria faberii. As to the kind of experiment: greenhouse experiment, post-emergence treatment. To be noted: 1.0 kg/ha. It counts as in vivo.
Description: as §2

Another series concerns Digitaria sanguinalis. As to the kind of experiment: greenhouse experiment, pre-emergence treatment. It is filed as in vivo.
Description: as §1

Structures are written as SMILES.

With `CCC(CC)/C(N)=C(\C#N)C(=O)OC(C)C` [Example 4.1, Isopropyl (2Z)-3-amino-2-cyano-4-ethyl-2-hexenoate], in the series on Amaranthus retroflexus, the “effect on the harmful plant Amaranthus retroflexus” value is on record as “very good”. Moreover, in the series with Setaria faberii [1] (1.0 kg/ha), the “effect on the harmful plant Setaria faberii” value is “very good”. Moreover, in the series with Pharbitis purpurea (1.0 kg/ha), the “post-emergence activity against Pharbitis purpurea” value is “very good”. Besides, the “post-emergence activity against Setaria faberii” value in the series with Setaria faberii [2] is reported as “very good”.
Take `CCC(C)OC(=O)/C(C#N)=C(\N)C(CC)CC` (stereo not drawn) [Example 4.2]: the “effect on the harmful plant Setaria faberii” value with Setaria faberii [1] (0.5 kg/ha) is on record as “very good”. In the series on Digitaria sanguinalis (0.5 kg/ha), the “effect on the harmful plant Digitaria sanguinalis” value is “very good”. Moreover, the “post-emergence activity against Pharbitis purpurea” value with Pharbitis purpurea (0.5 kg/ha) was “very good”.
In general, melting point refers to the temperature, or range, at which the solid turns liquid. With `CCC(CC)/C(N)=C(\C#N)C(=O)OC(C)(C)C` [Example 4.4], the melting point was determined as 150 °C. Also, the “effect on the harmful plant Setaria faberii” value with Setaria faberii [1] (1.0 kg/ha) is recorded as “very good”. Also, in the series on Pharbitis purpurea (1.0 kg/ha), the “post-emergence activity against Pharbitis purpurea” value is given as “very good”.
`CCC(CC)/C(N)=C(\C#N)C(=O)OCC(C)C` [Example 4.5]: the “effect on the harmful plant Setaria faberii” value in the series with Setaria faberii [1] (1.0 kg/ha) is “very good”. Further, the “effect on the harmful plant Digitaria sanguinalis” value in the series on Digitaria sanguinalis (1.0 kg/ha) is listed as “very good”. In addition, the “post-emergence activity against Pharbitis purpurea” value with Pharbitis purpurea (1.0 kg/ha) was “very good”.
For the molecule `CCC(CC)/C(N)=C(\C#N)C(=O)OCC(C)(C)C` [Example 4.6], the “effect on the harmful plant Setaria faberii” value in the series with Setaria faberii [1] (1.0 kg/ha) is reported as “very good”. Also, the “post-emergence activity against Pharbitis purpurea” value with Pharbitis purpurea (1.0 kg/ha) was “very good”.
With `CCC(CC)/C(N)=C(\C#N)C(=O)OC(C)C(C)C` (stereo not drawn) [Example 4.7], in the series on Setaria faberii [1] (1.0 kg/ha), the “effect on the harmful plant Setaria faberii” value is given as “good”. Also, in the series with Pharbitis purpurea (1.0 kg/ha), the “post-emergence activity against Pharbitis purpurea” value is on record as “good”.
Turning to `CCC(CC)/C(N)=C(\C#N)C(=O)OC1CCCC1` [Example 4.11], the melting point came out at 140 °C. Moreover, the “effect on the harmful plant Setaria faberii” value with Setaria faberii [1] (1.0 kg/ha) is “very good”. The “post-emergence activity against Pharbitis purpurea” value in the series with Pharbitis purpurea (1.0 kg/ha) is listed as “very good”.
The molecule `CCC(CC)/C(N)=C(\C#N)C(=O)OC1CCCCC1` [Example 4.12] registered a melting point of 154 °C.
`CCC(CC)/C(N)=C(\C#N)C(=O)OCC1CC1` [Example 4.13]: the melting point was determined as 125 °C. Further, the “effect on the harmful plant Setaria faberii” value in the series with Setaria faberii [1] (1.0 kg/ha) is reported as “very good”. For the same molecule, the “effect on the harmful plant Digitaria sanguinalis” value in the series on Digitaria sanguinalis (1.0 kg/ha) is “very good”.
Turning to `CCC(CC)/C(N)=C(\C#N)C(=O)OC1COC1` [Example 4.14, 3-Oxetanyl (2Z)-3-amino-2-cyano-4-ethyl-2-hexenoat], the “effect on the harmful plant Setaria faberii” value in the series with Setaria faberii [1] (1.0 kg/ha) is reported as “very good”.
`C=CC(C)OC(=O)/C(C#N)=C(\N)C(CC)CC` (stereo not drawn) [Example 4.16]: the “effect on the harmful plant Setaria faberii” value with Setaria faberii [1] (1.0 kg/ha) was “very good”. For the same molecule, the “effect on the harmful plant Digitaria sanguinalis” value with Digitaria sanguinalis (1.0 kg/ha) is recorded as “very good”.
Turning to `C#CCOC(=O)/C(C#N)=C(\N)C(CC)CC` [Example 4.19], in the series with Setaria faberii [1] (0.5 kg/ha), the “effect on the harmful plant Setaria faberii” value is reported as “very good”. In the series on Digitaria sanguinalis (0.5 kg/ha), the “effect on the harmful plant Digitaria sanguinalis” value was “very good”.
On to `C#CC(C)OC(=O)/C(C#N)=C(\N)C(CC)CC` (stereo not drawn) [Example 4.20], for which the “effect on the harmful plant Setaria faberii” value with Setaria faberii [1] (1.0 kg/ha) was “very good”. Also, the “effect on the harmful plant Digitaria sanguinalis” value in the series with Digitaria sanguinalis (1.0 kg/ha) is given as “very good”. Further, the “post-emergence activity against Pharbitis purpurea” value with Pharbitis purpurea (1.0 kg/ha) was “very good”.
For `CCC(CC)/C(N)=C(\C#N)C(=O)OCCC(F)(F)F` [Example 4.22], the “effect on the harmful plant Setaria faberii” value in the series on Setaria faberii [1] (0.5 kg/ha) is recorded as “very good”. The “effect on the harmful plant Digitaria sanguinalis” value in the series with Digitaria sanguinalis (0.5 kg/ha) is listed as “very good”.
As to `CCC(CC)/C(N)=C(\C#N)C(=O)OCCCl` [Example 4.23], in the series with Setaria faberii [1] (1.0 kg/ha), the “effect on the harmful plant Setaria faberii” value was “very good”. Moreover, the “post-emergence activity against Pharbitis purpurea” value in the series on Pharbitis purpurea (1.0 kg/ha) was “very good”.
With `CCC(CC)/C(N)=C(\C#N)C(=O)OCC(F)(F)F` [Example 4.25], the melting point is 115 °C. In addition, in the series with Setaria faberii [1] (1.0 kg/ha), the “effect on the harmful plant Setaria faberii” value was “very good”.
Take `CCC(CC)/C(N)=C(\C#N)C(=O)OCCCCl` [Example 4.29]: in the series with Setaria faberii [1] (1.0 kg/ha), the “effect on the harmful plant Setaria faberii” value is on record as “good”. Besides, in the series with Pharbitis purpurea (1.0 kg/ha), the “post-emergence activity against Pharbitis purpurea” value is reported as “very good”.
As to `CCC(CC)/C(N)=C(\C#N)C(=O)OC(C)CCl` (stereo not drawn) [Example 4.30], the “effect on the harmful plant Setaria faberii” value in the series with Setaria faberii [1] (1.0 kg/ha) was “very good”. In addition, the “effect on the harmful plant Digitaria sanguinalis” value in the series on Digitaria sanguinalis (1.0 kg/ha) was “very good”.
As to `CCC(CC)/C(N)=C(\C#N)C(=O)OC(C)C#N` (stereo not drawn) [Example 4.35], the “effect on the harmful plant Setaria faberii” value in the series on Setaria faberii [1] (1.0 kg/ha) is on record as “good”.
As to `CCC(CC)/C(N)=C(\C#N)C(=O)OC1CCOC1` (stereo not drawn) [Example 4.38], the melting point fell in the range of 105 to 110 °C.
`CCC(CC)/C(N)=C(\C#N)C(=O)O` [Example 4.42, (2Z)-3-Amino-2-cyano-4-ethyl-2-hexene acid] yielded a melting point of 165 °C.
The same measure, in the same setting: the value for `CCC(CC)/C(N)=C(\C#N)C(=O)OC1CCCO1` (stereo not drawn) [Example 4.43] was 180 °C.
On to `CCC(COC)/C(N)=C(\C#N)C(=O)OC(C)C` (stereo not drawn) [Example 5.2], for which the “effect on the harmful plant Setaria faberii” value in the series on Setaria faberii [1] (1.0 kg/ha) is reported as “very good”. Also, the “post-emergence activity against Pharbitis purpurea” value with Pharbitis purpurea (1.0 kg/ha) is on record as “very good”.
Take `CCCC(CC)/C(N)=C(\C#N)C(=O)OC(C)C` (stereo not drawn) [Example 5.3]: the “effect on the harmful plant Setaria faberii” value in the series on Setaria faberii [1] (1.0 kg/ha) is given as “very good”.
On to `CCCC(CCC)/C(N)=C(\C#N)C(=O)OC(C)C` [Example 5.6], for which the “post-emergence activity against Pharbitis purpurea” value in the series with Pharbitis purpurea (1.0 kg/ha) is “very good”.
For `C=CCC(CC)/C(N)=C(\C#N)C(=O)OC(C)C` (stereo not drawn) [Example 5.7], the “effect on the harmful plant Setaria faberii” value in the series with Setaria faberii [1] (1.0 kg/ha) is “very good”. The “effect on the harmful plant Digitaria sanguinalis” value in the series on Digitaria sanguinalis (1.0 kg/ha) is “very good”. Further, the “post-emergence activity against Pharbitis purpurea” value in the series with Pharbitis purpurea (1.0 kg/ha) was “very good”.
Turning to `C=CCC(CC=C)/C(N)=C(\C#N)C(=O)OC(C)C` [Example 5.9], the “post-emergence activity against Pharbitis purpurea” value in the series on Pharbitis purpurea (1.0 kg/ha) is “very good”.
Take `C#CCC(CC)/C(N)=C(\C#N)C(=O)OC(C)C` (stereo not drawn) [Example 5.10]: the “effect on the harmful plant Setaria faberii” value in the series on Setaria faberii [1] (1.0 kg/ha) was “very good”.
With `C#CCC(CC=C)/C(N)=C(\C#N)C(=O)OC(C)C` (stereo not drawn) [Example 5.11], the “post-emergence activity against Pharbitis purpurea” value in the series on Pharbitis purpurea (1.0 kg/ha) is on record as “very good”.
In the case of `CCC(CC)/C(N)=C(\C#N)C(N)=O` [Example 6.1], the melting point was 125 °C.
The same measure, in the same setting: the value for `CCC(CC)/C(N)=C(\C#N)C(=O)NC` [Example 6.2] was 146 °C.
Regarding `CCNC(=O)/C(C#N)=C(\N)C(CC)CC` [Example 6.3], the melting point lay within 104 to 106 °C. Also, the “effect on the harmful plant Setaria faberii” value with Setaria faberii [1] (1.0 kg/ha) is listed as “very good”. In addition, the “post-emergence activity against Pharbitis purpurea” value in the series with Pharbitis purpurea (1.0 kg/ha) is “very good”.
Regarding `CCC(CC)/C(N)=C(\C#N)C(=O)NC(C)C` [Example 6.5], the melting point is 164 °C.
Molecule `CCC(CC)/C(N)=C(\C#N)C(=O)N(C)C` [Example 6.21] displayed a melting point of 132 °C.
The same measure, in the same setting: the value for `CCNC(=O)/C(C#N)=C(\N)C(CC)CC` [Example 6.29] was 124 °C.
In turn, `CCC(CC)/C(N)=C(\C#N)C(=O)SC(C)C` [Example 7.3] displayed a melting point of 115 °C. Further, the “post-emergence activity against Pharbitis purpurea” value in the series on Pharbitis purpurea (1.0 kg/ha) is recorded as “very good”.
